Tested on: nAChRs in mouse brain
Test: regional distribution of [18F]FPH in mouse brain after tail vein injection
Format: in vivo
Method: The utility of [^18 F] FPH as an agent to label, in vivo, nAChRs in mouse brain was tested. Mice received 0.4 μCi of [^18 F]FPH (sp. act >2000 mCi/μmol) by tail vein injection. The regional distribution of the tracer in brain was assessed in the absence and presence of unlabeled epibatidine. […] In in vitro assays, the Ki for unlabeled FPH against nAChRs labeled with [^3 H] epibatidine was approximately 3 pM. […] FPH would be an excellent ligand for imaging nAChRs in living human brain.

[1] = 30 minutes post injection, tail vein, 0.4 μCi

[18F]c1ccc(C2CC3CCC2N3)cn1 (racemic) [[^18 F]FPH, (±)-exo-2-(2-[^18 F]fluoro-5-pyridyl)-7-azabicyclo[2.2.1]heptane]
uptake in cerebellum [1]: < 3 % ID/g
uptake in cortex [1]: 6.2 % ID/g
uptake in hippocampus [1]: 6 % ID/g
uptake in superior colliculus [1]: 10 % ID/g
uptake in thalamus [1]: 11 % ID/g
binding in all regions after pretreatment with unlabeled epibatidine (pretreatment with unlabeled epibatidine 20 μg/kg): ~ 3 % ID/g

— patent publication US5726189A, “Method for imaging nicotinic acetylcholinergic receptors in the brain using radiolabeled pyridyl-7-azabicyclo [2.2.1]heptanes” (priority 1996, dated 1998)
